Reference: patent US20220233549A1, “METHOD FOR ALPHAVIRUS INHIBITION” (priority 2019, published 2022)

System: CHIKV 181/clone25
Assay: CHIKV cytopathic effect (CPE) protection assay in Vero cells
Type: cell-based
Settings: Chikungunya virus; CHIKV 181/clone25, Vero cells, MOI=0.01, 48 hrs, protection from CPE (crystal violet, absorbance 595nm)

SMILES | EC50
O=C(CC1Sc2ncccc2NC1=O)NCC1CCC(O)CC1 (centres unmarked) [Example 4, N-((4-hydroxycyclohexyl)methyl)-2-(2-oxo-2,3-dihydro-1H-pyrido[2,3-b][1,4]thiazin-3-yl)acetamide] | > 100 µM
O=C(CC1Sc2ncccc2NC1=O)NCC1(F)CCCCC1 (centres unmarked) [Example 78, N-((1-fluorocyclohexyl)methyl)-2-(2-oxo-2,3-dihydro-1H-pyrido[2,3-b][1,4]thiazin-3-yl)acetamide] | < 10 µM
COCCCNC(=O)CC1Sc2ncccc2N(C)C1=O (centres unmarked) [Example 21, N-(3-methoxypropyl)-2-(1-methyl-2-oxo-2,3-dihydro-1H-pyrido[2,3-b][1,4]thiazin-3-yl)acetamide] | > 100 µM
CC(NC(=O)CC1Sc2ncccc2N(C)C1=O)c1cccnc1 (centres unmarked) [Example 39, 2-(1-methyl-2-oxo-2,3-dihydro-1H-pyrido[2,3-b][1,4]thiazin-3-yl)-N-(1-(pyridin-3-yl)ethyl)acetamide] | > 100 µM
O=C(CC1Sc2cnccc2NC1=O)NCC1CCCCC1 (centres unmarked) [Example 83, N-(cyclohexylmethyl)-2-(2-oxo-2,3-dihydro-1H-pyrido[3,4-b][1,4]thiazin-3-yl)acetamide] | > 100 µM
O=C(CC1Nc2ncccc2NC1=O)NCC1CCCCC1 (centres unmarked) [Example 65, N-(cyclohexylmethyl)-2-(2-oxo-1,2,3,4-tetrahydropyrido[2,3-b]pyrazin-3-yl)acetamide] | > 100 µM
CCCN1CCN(C(=O)CC2Sc3ncccc3N(C)C2=O)CC1 (centres unmarked) [Example 34, 1-methyl-3-(2-oxo-2-(4-propylpiperazin-1-yl)ethyl)-1H-pyrido[2,3-b][1,4]thiazin-2(3H)-one] | > 100 µM
O=C(CC1Sc2ncccc2NC1=O)NCC1CCCCC1 (centres unmarked) [Example 2, N-(cyclohexylmethyl)-2-(2-oxo-2,3-dihydro-1H-pyrido[2,3-b][1,4]thiazin-3-yl)acetamide] | < 10 µM
Cc1ccc(CNC(=O)CC2Sc3ncccc3N(C)C2=O)cc1 (centres unmarked) [Example 26, 2-(1-methyl-2-oxo-2,3-dihydro-1H-pyrido[2,3-b][1,4]thiazin-3-yl)-N-(4-methylbenzyl)acetamide] | 10 to 49.9 µM
CCCCCNC(=O)CC1Sc2ncccc2NC1=O (centres unmarked) [Example 71, 2-(2-oxo-2,3-dihydro-1H-pyrido[2,3-b][1,4]thiazin-3-yl)-N-pentylacetamide] | 10 to 49.9 µM
CCN1C(=O)C(CC(=O)N2CCCCCC2)Sc2ncccc21 (centres unmarked) [Example 45, 3-(2-(azepan-1-yl)-2-oxoethyl)-1-ethyl-1H-pyrido[2,3-b][1,4]thiazin-2(3H)-one] | > 100 µM
CCC(CC)CNC(=O)CC1Sc2ncccc2NC1=O (centres unmarked) [Example 61, N-(2-ethylbutyl)-2-(2-oxo-2,3-dihydro-1H-pyrido[2,3-b][1,4]thiazin-3-yl)acetamide] | 10 to 49.9 µM
CN1C(=O)C(CC(=O)NC2=CCCCC2)Sc2ncccc21 (centres unmarked) [Example 20, N-(cyclohex-1-en-1-yl)-2-(1-methyl-2-oxo-2,3-dihydro-1H-pyrido[2,3-b][1,4]thiazin-3-yl)acetamide] | 10 to 49.9 µM
O=C(CC1Sc2ncccc2NC1=O)NCCC(F)(F)F (centres unmarked) [Example 74, 2-(2-oxo-2,3-dihydro-1H-pyrido[2,3-b][1,4]thiazin-3-yl)-N-(3,3,3-trifluoropropyl)acetamide] | > 100 µM
CN1C(=O)[C@H](CC(=O)NCC2CCCCC2)Sc2ncccc21 [Example 7, (S)-N-(cyclohexylmethyl)-2-(1-methyl-2-oxo-2,3-dihydro-1H-pyrido[2,3-b][1,4]thiazin-3-yl)acetamide] | 10 to 49.9 µM
CN1C(=O)C(CC(=O)N2CCCC2)Sc2ncccc21 (centres unmarked) [Example 37, 1-methyl-3-(2-oxo-2-(pyrrolidin-1-yl)ethyl)-1H-pyrido[2,3-b][1,4]thiazin-2(3H)-one] | > 100 µM
O=C(CC1Sc2ncccc2NC1=O)NCCC1CCCCC1 (centres unmarked) [Example 58, N-(2-cyclohexylethyl)-2-(2-oxo-2,3-dihydro-1H-pyrido[2,3-b][1,4]thiazin-3-yl)acetamide] | 10 to 49.9 µM
CCCOC1(CNC(=O)CC2Sc3ncccc3NC2=O)CCCCC1 (centres unmarked) [Example 81, 2-(2-oxo-2,3-dihydro-1H-pyrido[2,3-b][1,4]thiazin-3-yl)-N-((1-propoxycyclohexyl)methyl)ace-tamide] | 10 to 49.9 µM
CN1C(=O)C(CC(=O)NCC2CCCO2)Sc2ncccc21 (centres unmarked) [Example 9, 2-(1-methyl-2-oxo-2,3-dihydro-1H-pyrido[2,3-b][1,4]thiazin-3-yl)-N-((tetrahydrofuran-2-yl)methyl)acetamide] | > 100 µM
O=C(O)CC1Sc2ncccc2NC1=O (centres unmarked) [Example 5, 2-(2-oxo-2,3-dihydro-1H-pyrido[2,3-b][1,4]thiazin-3-yl)acetic acid] | > 100 µM
O=C(CC1Sc2ncccc2NC1=O)NCC1(O)CCCCC1 (centres unmarked) [Example 77, N-((1-hydroxycyclohexyl)methyl)-2-(2-oxo-2,3-dihydro-1H-pyrido[2,3-b][1,4]thiazin-3-yl)acetamide] | < 10 µM
CN1C(=O)C(CC(=O)NC2CCCC2)Sc2ncccc21 (centres unmarked) [Example 22, N-cyclopentyl-2-(1-methyl-2-oxo-2,3-dihydro-1H-pyrido[2,3-b][1,4]thiazin-3-yl)acetamide] | 50 to 99.9 µM

SMILES | EC50
CC(C)CCNC(=O)CC1Sc2ncccc2N(C)C1=O (centres unmarked) [Example 29, N-isopentyl-2-(1-methyl-2-oxo-2,3-dihydro-1H-pyrido[2,3-b][1,4]thiazin-3-yl)acetamide] | < 10 µM
CC(C)CCCNC(=O)CC1Sc2ncccc2NC1=O (centres unmarked) [Example 67, N-(4-methylpentyl)-2-(2-oxo-2,3-dihydro-1H-pyrido[2,3-b][1,4]thiazin-3-yl)acetamide] | 10 to 49.9 µM
CC1CCCN(C(=O)CC2Sc3ncccc3N(C)C2=O)C1 (centres unmarked) [Example 35, 1-methyl-3-(2-(3-methylpiperidin-1-yl)-2-oxoethyl)-1H-pyrido[2,3-b][1,4]thiazin-2(3H)-one] | > 100 µM
CC1(CNC(=O)CC2Sc3ncccc3NC2=O)CCCCC1 (centres unmarked) [Example 66, N-((1-methylcyclohexyl)methyl)-2-(2-oxo-2,3-dihydro-1H-pyrido[2,3-b][1,4]thiazin-3-yl)acetamide] | < 10 µM
O=C(CC1Sc2ncccc2NC1=O)NCc1cc(F)c(F)c(F)c1 (centres unmarked) [Example 51, 2-(2-oxo-2,3-dihydro-1H-pyrido[2,3-b][1,4]thiazin-3-yl)-N-(3,4,5-trifluorobenzyl)acetamide] | 50 to 99.9 µM
O=C(CC1Cc2ncccc2NC1=O)NCC1(F)CCCCC1 (centres unmarked) [Example 89, N-((1-fluorocyclohexyl)methyl)-2-(2-oxo-1,2,3,4-tetrahydro-1,5-naphthyridin-3-yl)acetamide] | 10 to 49.9 µM
O=C(CC1Oc2ncccc2NC1=O)NCC1CCCCC1 (centres unmarked) [Example 91, N-(cyclohexylmethyl)-2-(2-oxo-2,3-dihydro-1H-pyrido[2,3-b][1,4]oxazin-3-yl)acetamide] | 10 to 49.9 µM
CC(C)(C)CCCNC(=O)CC1Sc2ncccc2NC1=O (centres unmarked) [Example 68, N-(4,4-dimethylpentyl)-2-(2-oxo-2,3-dihydro-1H-pyrido[2,3-b][1,4]thiazin-3-yl)acetamide] | 10 to 49.9 µM
COC(=O)CC1Sc2ncccc2NC1=O (centres unmarked) [Example 3, methyl 2-(2-oxo-2,3-dihydro-1H-pyrido[2,3-b][1,4]thiazin-3-yl)acetate] | > 100 µM
CN1C(=O)C(CC(=O)NCc2ccccc2)Sc2ncccc21 (centres unmarked) [Example 15, N-benzyl-2-(1-methyl-2-oxo-2,3-dihydro-1H-pyrido[2,3-b][1,4]thiazin-3-yl)acetamide] | 10 to 49.9 µM
CN1C(=O)C(CC(=O)NC2CCCCCC2)Sc2ncccc21 (centres unmarked) [Example 23, N-cycloheptyl-2-(1-methyl-2-oxo-2,3-dihydro-1H-pyrido[2,3-b][1,4]thiazin-3-yl)acetamide] | 10 to 49.9 µM
CN1C(=O)C(CC(=O)NCc2ccncc2)Sc2ncccc21 (centres unmarked) [Example 14, 2-(1-methyl-2-oxo-2,3-dihydro-1H-pyrido[2,3-b][1,4]thiazin-3-yl)-N-(pyridin-4-ylmethyl)acetamide] | > 100 µM
CCN1C(=O)C(CC(=O)NCc2ccncc2)Sc2ncccc21 (centres unmarked) [Example 42, 2-(1-ethyl-2-oxo-2,3-dihydro-1H-pyrido[2,3-b][1,4]thiazin-3-yl)-N-(pyridin-4-ylmethyl)acetamide] | > 100 µM
O=C(CC1CNc2cccnc2S1)NCC1CCCCC1 (centres unmarked) [Example 92, N-(cyclohexylmethyl)-2-(2,3-dihydro-1H-pyrido[2,3-b][1,4]thiazin-3-yl)acetamide] | 10 to 49.9 µM
CC1(C)CCC(CNC(=O)CC2Sc3ncccc3NC2=O)CC1 (centres unmarked) [Example 69, N-((4,4-dimethylcyclohexyl)methyl)-2-(2-oxo-2,3-dihydro-1H-pyrido[2,3-b][1,4]thiazin-3-yl)acetamide] | 10 to 49.9 µM
CN1C(=O)C(CC(=O)NCc2cccs2)Sc2ncccc21 (centres unmarked) [Example 41, 2-(1-methyl-2-oxo-2,3-dihydro-1H-pyrido[2,3-b][1,4]thiazin-3-yl)-N-(thiophen-2-ylmethyl)acetamide] | 10 to 49.9 µM
CN1C(=O)C(CC(=O)NCc2ccc(F)cc2)Sc2ncccc21 (centres unmarked) [Example 24, N-(4-fluorobenzyl)-2-(1-methyl-2-oxo-2,3-dihydro-1H-pyrido[2,3-b][1,4]thiazin-3-yl)acetamide] | < 10 µM
CCN1CCN(C(=O)CC2Sc3ncccc3N(C)C2=O)CC1 (centres unmarked) [Example 11, 3-(2-(4-ethylpiperazin-1-yl)-2-oxoethyl)-1-methyl-1H-pyrido[2,3-b][1,4]thiazin-2(3H)-one] | > 100 µM
CN1C(=O)C(CC(=O)NCc2ccccn2)Sc2ncccc21 (centres unmarked) [Example 12, 2-(1-methyl-2-oxo-2,3-dihydro-1H-pyrido[2,3-b][1,4]thiazin-3-yl)-N-(pyridin-2-ylmethyl)acetamide] | > 100 µM
CC(C)(C)CCNC(=O)CC1Sc2ncccc2NC1=O (centres unmarked) [Example 64, N-(3,3-dimethylbutyl)-2-(2-oxo-2,3-dihydro-1H-pyrido[2,3-b][1,4]thiazin-3-yl)acetamide] | > 100 µM
CC(NC(=O)CC1Sc2ncccc2N(C)C1=O)c1ccccc1 (centres unmarked) [Example 17, 2-(1-methyl-2-oxo-2,3-dihydro-1H-pyrido[2,3-b][1,4]thiazin-3-yl)-N-(1-phenylethyl)acetamide] | > 100 µM
CCC(C)(C)CNC(=O)CC1Sc2ncccc2NC1=O (centres unmarked) [Example 75, N-(2,2-dimethylbutyl)-2-(2-oxo-2,3-dihydro-1H-pyrido[2,3-b][1,4]thiazin-3-yl)acetamide] | < 10 µM
